Our source for the inhibition, IC50 and Activity values is ChEMBL document CHEMBL1137509, “Taxodistines A and B, abietane-type diterpenes from Taxodium distichum” (Bioorg Med Chem Lett, 2007).

Converted amounts (≈) assume the structure as drawn. The source made the active and inactive calls. The calls are words filed in the database; no cut-off is given here.

Test [1] deals with T1, Tubulin (Homo sapiens) (UniProt P68371+Q9H4B7+P0DPH7+P68366+Q13509+Q71U36+P04350+Q3ZCM7+P07437+P68363+Q9BQE3+Q6PEY2+Q13885+Q9BVA1+Q9BUF5). Briefly: Inhibition of tubulin polymerization at 100 uM after 30 mins. Format: protein-complex assay.
Test [2] has as its system P388. Kind of test: Cytotoxicity against mouse P388 cells. Format: functional, cell-based.
For test [3], the target named is T1, Tubulin (Homo sapiens). Briefly: Inhibition of tubulin polymerization at 200 uM after 30 mins. Format: protein-complex assay.

For the compound `CC(C)C1=CC2=CC(=O)[C@H]3C(C)(C)CCC[C@]3(C)C2=C(O)C1=O`, the inhibition in test [1] stood at 45%. In test [2], `CO[C@@H]1c2cc(C(C)C)c(O)cc2[C@@]2(C)CCCC(C)(C)[C@@H]2[C@H]1O` [TAXODISTINE B] returned a half-inhibitory concentration (IC50) of 6.5 µg/mL (≈ 19.5 µM). In test [1], this compound displayed an inhibition of 90%.

Turning to `CO[C@@H]1c2cc(C(C)C)c(O)c(O)c2[C@@]2(C)CCCC(C)(C)[C@@H]2[C@H]1O` [TAXODISTINE A], the IC50 in test [2] was found to be 0.43 µg/mL (≈ 1.23 µM). The result in test [3] was inactive.

The term inhibition denotes the relative decrease from the control value, in per cent. For orientation: IC50 means the midpoint of a concentration-inhibition curve. A higher IC50 goes with weaker potency.
